Laboratory results taken from publication doi:10.1101/2024.09.25.614871v2, “CLYBL averts methylmalonyl-CoA mutase inhibition and loss of vitamin B12 by repairing malyl-CoA” (biorxiv, 2024).

Columns and labels:
citrate synthase (CS) = molecular target: T1, citrate synthase (CS) (Sus scrofa, UniProt P00889); assay: Ellman's reagent at […] nm, inhibition of malyl-CoA thioesterase; assay type: biochemical; settings: read-out: % inhibition at highest concentration (100 μM)
T1 construct: commercial native enzyme from porcine heart
T1 sequence (P00889 28-464): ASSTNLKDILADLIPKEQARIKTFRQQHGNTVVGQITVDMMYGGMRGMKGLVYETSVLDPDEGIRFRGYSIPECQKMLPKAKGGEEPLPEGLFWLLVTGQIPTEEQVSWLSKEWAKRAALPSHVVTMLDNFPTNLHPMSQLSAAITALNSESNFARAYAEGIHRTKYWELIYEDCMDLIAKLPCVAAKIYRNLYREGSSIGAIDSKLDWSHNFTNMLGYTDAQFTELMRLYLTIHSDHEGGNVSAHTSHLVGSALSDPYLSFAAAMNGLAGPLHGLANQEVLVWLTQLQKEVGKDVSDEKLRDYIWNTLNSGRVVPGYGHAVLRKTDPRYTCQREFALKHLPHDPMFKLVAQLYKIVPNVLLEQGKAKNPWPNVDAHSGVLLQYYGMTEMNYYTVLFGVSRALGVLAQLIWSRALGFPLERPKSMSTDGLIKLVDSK

[1] = molecular target: T2, methylmalonyl-CoA mutase (MCM) (Homo sapiens, UniProt P22033); assay: absorbance spectrum of loaded enzyme; assay type: binding; settings: 12.5 μM MCM homodimer, 5 μM adenosylcobalamin, pH 7.5, 30 °C
T2 construct: gene MMUT
T2 sequence (P22033 34-750): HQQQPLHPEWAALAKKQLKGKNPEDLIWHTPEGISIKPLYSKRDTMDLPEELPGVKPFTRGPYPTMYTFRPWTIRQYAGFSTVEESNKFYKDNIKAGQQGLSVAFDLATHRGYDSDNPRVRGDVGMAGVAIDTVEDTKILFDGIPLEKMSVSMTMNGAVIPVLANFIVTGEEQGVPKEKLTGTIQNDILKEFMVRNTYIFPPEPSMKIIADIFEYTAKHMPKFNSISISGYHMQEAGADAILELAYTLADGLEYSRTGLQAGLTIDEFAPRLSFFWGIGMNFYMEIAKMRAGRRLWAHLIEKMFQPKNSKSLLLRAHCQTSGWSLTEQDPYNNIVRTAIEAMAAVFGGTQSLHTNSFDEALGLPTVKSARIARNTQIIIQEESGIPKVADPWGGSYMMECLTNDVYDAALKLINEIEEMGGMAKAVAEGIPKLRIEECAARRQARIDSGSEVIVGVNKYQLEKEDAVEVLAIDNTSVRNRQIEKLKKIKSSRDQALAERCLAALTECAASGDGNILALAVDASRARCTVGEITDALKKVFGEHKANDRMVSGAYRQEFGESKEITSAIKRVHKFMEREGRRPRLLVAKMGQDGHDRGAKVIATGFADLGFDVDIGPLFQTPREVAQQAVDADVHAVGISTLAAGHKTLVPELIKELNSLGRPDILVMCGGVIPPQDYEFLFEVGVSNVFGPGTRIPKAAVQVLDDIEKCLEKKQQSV

[2] = molecular target: T2, methylmalonyl-CoA mutase (MCM); assay: succinyl-CoA formation by LC-HRMS/MS; assay type: biochemical; settings: 10 min preincubation, 0.24 μM adenosylcobalamin, 65 μM methylmalonyl-CoA, pH 7.5, 30 °C; coenzyme inactivation to cob(II)alamin; itaconyl-CoA 27% pure, concentrations corrected
CLYBL = molecular target: T3, CLYBL (Homo sapiens, UniProt Q8N0X4, I241V); assay: Ellman's reagent at […] nm (thioesterase); assay type: biochemical; settings: pH 7.5, 37 °C, 2 mM MgCl2
T3 construct: full-length ORF (340 aa precursor), natural variant Ile241Val, C-terminal Myc-DKK (FLAG) tag, expressed in HEK293FT, anti-FLAG purified
T3 sequence (Q8N0X4 23-340 I241V): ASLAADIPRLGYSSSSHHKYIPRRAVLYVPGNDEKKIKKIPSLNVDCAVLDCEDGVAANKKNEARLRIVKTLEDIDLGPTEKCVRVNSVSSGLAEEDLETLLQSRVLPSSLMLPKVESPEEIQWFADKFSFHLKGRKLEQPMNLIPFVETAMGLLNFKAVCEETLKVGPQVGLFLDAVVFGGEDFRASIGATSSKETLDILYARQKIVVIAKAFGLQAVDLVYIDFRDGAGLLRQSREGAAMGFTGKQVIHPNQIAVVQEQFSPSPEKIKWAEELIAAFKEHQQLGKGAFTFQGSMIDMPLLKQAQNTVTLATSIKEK

[3] = molecular target: T2, methylmalonyl-CoA mutase (MCM); assay: succinyl-CoA formation by LC-HRMS/MS; assay type: biochemical; settings: read-out: % residual activity at 50 μM
[4] = molecular target: T4, SUCL (GDP-forming), SUCLG1:SUCLG2 complex (Homo sapiens, UniProt P53597+Q96I99); assay: PK/LDH-coupled NADH consumption; assay type: biochemical; settings: 0.6 mM GTP, 0.1 mM CoA, 7 mM MgCl2, pH 7.5, 30 °C
T4 construct: SUCLG1 aa 28-333 with N-terminal His6, SUCLG2 aa 38-420 with C-terminal His6, co-expressed in E. coli, tags kept
Source text: PK/LDH-coupled NADH consumption on SUCL (GDP-forming), SUCLG1:SUCLG2 complex

[5] = molecular target: T5, SUCL (ADP-forming), SUCLG1:SUCLA2 complex (Homo sapiens, UniProt P53597+Q9P2R7); assay: PK/LDH-coupled NADH consumption; assay type: biochemical; settings: 0.6 mM ATP, 0.1 mM CoA, 7 mM MgCl2, pH 7.5, 30 °C
T5 construct: SUCLG1 aa 28-333 with N-terminal His6, SUCLA2 aa 53-463 with C-terminal His6, co-expressed in E. coli, tags kept
Source text: PK/LDH-coupled NADH consumption on SUCL (ADP-forming), SUCLG1:SUCLA2 complex

T5 sequence (P53597 28-333): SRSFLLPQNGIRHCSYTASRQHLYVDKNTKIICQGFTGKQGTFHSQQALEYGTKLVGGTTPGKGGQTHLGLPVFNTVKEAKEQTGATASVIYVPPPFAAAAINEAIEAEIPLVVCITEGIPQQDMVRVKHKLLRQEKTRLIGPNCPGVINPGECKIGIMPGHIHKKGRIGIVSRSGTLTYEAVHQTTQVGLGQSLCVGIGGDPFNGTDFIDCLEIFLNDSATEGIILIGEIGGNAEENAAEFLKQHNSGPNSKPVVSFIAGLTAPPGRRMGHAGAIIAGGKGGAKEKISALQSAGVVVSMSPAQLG
T5 sequence (Q9P2R7 53-463): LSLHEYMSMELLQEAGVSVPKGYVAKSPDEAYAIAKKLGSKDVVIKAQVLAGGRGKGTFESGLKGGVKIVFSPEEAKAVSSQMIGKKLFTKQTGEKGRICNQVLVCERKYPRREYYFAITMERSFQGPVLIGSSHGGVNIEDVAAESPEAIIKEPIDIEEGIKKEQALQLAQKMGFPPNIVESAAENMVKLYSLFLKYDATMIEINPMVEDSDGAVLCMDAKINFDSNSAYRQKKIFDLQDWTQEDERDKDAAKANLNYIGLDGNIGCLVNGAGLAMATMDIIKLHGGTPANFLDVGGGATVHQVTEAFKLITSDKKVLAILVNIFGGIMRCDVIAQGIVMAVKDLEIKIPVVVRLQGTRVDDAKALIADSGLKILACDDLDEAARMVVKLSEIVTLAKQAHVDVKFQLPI
T4 sequence (P53597 28-333): as the sequence (P53597 28-333) above
T4 sequence (Q96I99 38-420): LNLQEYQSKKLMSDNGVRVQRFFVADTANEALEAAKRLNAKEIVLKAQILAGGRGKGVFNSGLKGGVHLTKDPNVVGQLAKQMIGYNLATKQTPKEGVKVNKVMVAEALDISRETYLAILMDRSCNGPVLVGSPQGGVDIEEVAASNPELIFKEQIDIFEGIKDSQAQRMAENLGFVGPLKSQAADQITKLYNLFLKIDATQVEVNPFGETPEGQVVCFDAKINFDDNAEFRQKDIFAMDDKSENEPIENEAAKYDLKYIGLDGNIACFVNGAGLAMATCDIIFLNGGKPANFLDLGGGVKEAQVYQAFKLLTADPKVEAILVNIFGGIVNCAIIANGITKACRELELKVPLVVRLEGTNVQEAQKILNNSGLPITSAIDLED

Work on CC(=O)SCCNC(=O)CCNC(=O)[C@H](O)C(C)(C)COP(=O)(O)OP(=O)(O)OC[C@H]1O[C@@H](n2cnc3c(N)ncnc32)[C@H](O)[C@@H]1OP(=O)(O)O [ACoA, acetyl-CoA] yielded an inhibition at 100 µM (citrate synthase (CS)) of about 30%.

For C/C1=C2/[N-][C@H]([C@H](CC(N)=O)[C@@]2(C)CCC(=O)NC[C@@H](C)OP(=O)([O-])O[C@H]2C(O)[C@@H](n3cnc4cc(C)c(C)cc43)O[C@@H]2CO)[C@]2(C)N=C(/C(C)=C3N=C(/C=C4N=C1[C@@H](CCC(N)=O)C\4(C)C)[C@@H](CCC(N)=O)[C@]\3(C)CC(N)=O)[C@@H](CCC(N)=O)[C@]2(C)CC(N)=O.[CH2-][C@H]1O[C@@H](n2cnc3c(N)ncnc32)[C@H](O)[C@@H]1O.[Co+3] (stereo partly shown) [AdoCbl, adenosylcobalamin], the “absorbance spectrum of loaded enzyme” value [1] was “conversion of the MCM-bound adenosylcobalamin into cob(II)alamin”.

C=C(CC(=O)SCCNC(=O)CCNC(=O)[C@H](O)C(C)(C)COP(=O)(O)OP(=O)(O)OC[C@H]1O[C@@H](n2cnc3c(N)ncnc32)[C@H](O)[C@@H]1OP(=O)(O)O)C(=O)O [itaconyl-CoA] was tested, and the relative activity [2] was “Both acyl-CoAs induced a dose-dependent inhibition of MCM (Fig. 5a)”.

For CC(C)(COP(=O)(O)OP(=O)(O)OC[C@H]1O[C@@H](n2cnc3c(N)ncnc32)[C@H](O)[C@@H]1OP(=O)(O)O)[C@@H](O)C(=O)NCCC(=O)NCCSC(=O)C[C@H](O)C(=O)O [malyl-CoA], the KM (CLYBL) was “CLYBL actively hydrolyzed malyl-CoA into malate and free CoASH” and the remaining activity at 50 µM [3] was under 10%.

O=C(O)CCC(=O)O [succinate] showed a Km [4] of 0.25 ± 0.03 mM and a Km [5] of 6.3 ± 1.9 mM.
